“Also recorded” adds a separate entry of the source.
What was measured:
SBC2 [1] = biological target: T1, SBC2 (Homo sapiens, UniProt O14508); test: Isothermal titration calorimetry (ITC), direct titration; format: binding
T1 construct: SOCS2 (amino acids 32–198); His6 (N, cleaved yes); made in house; host or cells: E. coli BL21(DE3)
Method: Experiments were performed with ITC200 instrument (Malvern) in 100 mM HEPES pH 7.5, 50 mM NaCl, 0.5 mM TCEP at 298 K. The ITC titration consisted of 0.4 μl initial injection (discarded during data analysis) followed by 19 of 2 μl injections at 120 s interval between injections. 1 mM of the ligands in 2–4% DMSO were titrated into 100 μM SBC2. […] Binding data was subtracted from a control titration where ligand was titrated into buffer, and fitted using a one-set-of-site binding model to obtain dissociation constant (Kd), binding enthalpy (ΔH), and stoichiometry (N) using MicroCal PEAQ-ITC Analysis Software1.1.0.1262 and MicroCal ITC-ORIGIN Analysis Software 7.0 (Malvern).

SBC2 [2] = biological target: T1, SBC2; test: Differential scanning fluorimetry (DSF); format: binding; conditions: 5 µM SBC2 + 100 µM MN551
Method: DSF experiments were performed on a Biorad CFX96 RT-PCR machine. […] of SBC2 were incubated with […] MN551 (2 % DMSO) or DMSO control in 50 mM Tris, pH 8.0, 50 mM NaCl and 6.6 × SYPRO Orange. The temperature was ramped up in 1 °C steps between 25 and 95 °C with 30 s incubation at each step. Melting curves were analyzed by determining the minimum of the first derivative using the Biorad CFX Manager software.

[3] = biological target: T2, SOCS2 C111S mutant (SBC2 C111S) (Homo sapiens, UniProt O14508, C111S); test: Intact ESI-MS of recombinant protein, covalent modification; format: biochemical; conditions: for % modified: SOCS2 C111S + MN551 (1:1, 50 µM)
T2 construct: SOCS2 (amino acids 32–198); His6 (N, cleaved yes); made in house; host or cells: E. coli BL21(DE3)
Method: […] At defined time points 20 µl samples were removed and the protein precipitated by the addition of 80 µl methanol. The precipitated protein was pelleted by centrifugation, washed with 500 µl methanol, and resuspended in an aqueous solution of 15% acetonitrile and 1% TFA. Samples were separated by HPLC on a C3 column using a 10–75% gradient of acetonitrile and analyzed using an Agilent 6130 quadrupole MS. Spectra were deconvoluted and integrated using Agilent LC/MSD ChemStation.

SOCS2 Cys111 = biological target: T3, SOCS2 Cys111 (Homo sapiens, UniProt O14508); test: SOCS2 immunoprecipitation and tandem MS (LC-MS/MS) of Cys111 peptide from treated K562 cells; format: cell-based; conditions: 6 h
T3 construct: MN551 covalently modifies cellular SOCS2 specifically at Cys111; endogenous in cells; host or cells: K562
T3 sequence (O14508 1-198): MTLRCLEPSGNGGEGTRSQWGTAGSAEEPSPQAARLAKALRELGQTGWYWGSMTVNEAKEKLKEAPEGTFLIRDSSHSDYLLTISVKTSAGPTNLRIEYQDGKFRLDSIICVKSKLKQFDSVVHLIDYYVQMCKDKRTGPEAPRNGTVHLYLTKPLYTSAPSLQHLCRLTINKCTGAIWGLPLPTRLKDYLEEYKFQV
Method: While CETSA and GHR pulldown experiments allow ascertaining the engagement of cellular SOCS2, distinguishing reversible binding from covalent binding remains a challenge. […] Moreover, the MS2 spectra for cells treated with 1 μM and 10 μM MN714 show a dose-dependent increase in levels of SOCS2 modification (Fig. 6e).
Cells were treated with either DMSO, 1 μM, or 10 μM MN714 for 6 h in 10 cm dish. Cells were harvested, washed with PBS, and lysed in […] RIPA buffer (Sigma-R0278: 150 mM NaCl, 1.0% IGEPAL® CA-630, 0.5% sodium deoxycholate, 0.1% SDS, 50 mM Tris, pH 8.0, and freshly added protease inhibitor tablet). Cellular debris was pelleted, the lysate supernatant was aspirated to a new tube and subjected to immunoprecipitation at 4 °C for 4 h with 3 μl anti-SOCS2 antibody coupled to 20 μl of protein A/G beads (abcam- ab109245). The beads were washed 3 times with 1× RIPA buffer and precipitated protein samples were eluted with 1 × NuPAGE™ LDS sample buffer, and 20% of the sample was analyzed by SDS-PAGE and western blot using a rabbit anti-SOCS2 primary antibody (abcam) and IRDye® 800CW donkey anti-rabbit IgG secondary antibody. The remaining precipitated protein samples were processed for mass-spec analysis. In brief, the samples were reduced with DTT alkylated with Iodoacetamide and subjected to the SP3 protein clean-up procedure. […]
LC-MS analysis was performed by the FingerPrints Proteomics Facility (University of Dundee). Analysis of peptide readout was performed on a Q-Exactive™ plus, Mass Spectrometer (Thermo Scientific) coupled to a Dionex Ultimate 3000 RS (Thermo Scientific). […]
MS raw data were analyzed using MaxQuant software, standard settings were used with the following changes and additions: The modified FASTA databases with individual substitutions of cysteines with the placeholder “U” (selenocysteine) were used[67]. […] The relative intensity of peptide […] without and with a modified cysteine (placeholder “U”) were analyzed by normalizing to total intensity of SOCS2 protein.

T2 sequence (Q15370 1-104): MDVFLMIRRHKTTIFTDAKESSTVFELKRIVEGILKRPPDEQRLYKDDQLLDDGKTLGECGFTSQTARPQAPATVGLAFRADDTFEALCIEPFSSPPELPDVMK
T2 sequence (Q15369 17-112, further chain): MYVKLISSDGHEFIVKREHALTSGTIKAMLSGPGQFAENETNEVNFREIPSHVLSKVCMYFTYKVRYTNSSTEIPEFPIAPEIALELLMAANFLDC
T2 sequence (O14508 32-198 C111S): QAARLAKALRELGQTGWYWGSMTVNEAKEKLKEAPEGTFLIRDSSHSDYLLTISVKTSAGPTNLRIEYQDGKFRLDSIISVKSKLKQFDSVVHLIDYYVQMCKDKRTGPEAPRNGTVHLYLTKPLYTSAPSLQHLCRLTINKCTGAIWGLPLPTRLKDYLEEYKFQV
T1 sequence (Q15370 1-104 partner limits assumed, one chain of several): as the sequence (Q15370 1-104) above
T1 sequence (Q15369 17-112 partner limits assumed, one chain of several): as the sequence (Q15369 17-112, further chain) above

SMILES	Ki (SBC2 [1]) [µM]	Kd (SBC2 [1]; ITC KD, direct ITC, 298 K) [µM]	ΔTm, shift in the melting temperature of SBC2 (SBC2 [2]) [°C]	covalent reactivity with C111S mutant [3]	% modified ([3]; t = 0 min) [%]	% modified ([3]; t = 5 min) [%]	% modified ([3]; t = 10 min) [%]	% modified ([3]; t = 20 min) [%]	% modified ([3]; t = 40 min) [%]	% modified ([3]; t = 60 min) [%]	% modified ([3]; t = 90 min) [%]	% modified ([3]; t = 120 min) [%]	relative intensity of modified peptide LDSIIUVK, normalised to total SOCS2 levels (SOCS2 Cys111; 1uM)	relative intensity of unmodified peptide LDSIICVK, normalised to total SOCS2 levels (SOCS2 Cys111; 1uM)	relative intensity of unmodified peptide LDSIICVK, normalised to total SOCS2 levels (SOCS2 Cys111; 10uM)
O=C(CCl)Nc1cccc(CNC(=O)[C@H](Cc2ccc(OP(=O)(O)O)cc2)NC(=O)Cc2ccc(F)cc2)c1 [MN551]	2.2	2.18 ± 0.6	6	no reactivity; also recorded: does not covalently react	0.0	0.0	0.0	0.0	0.0	0.0	0.0	0.0			
CC(C)(C)C(=O)OCOP(=O)(OCOC(=O)C(C)(C)C)Oc1ccc(C[C@H](NC(=O)Cc2ccc(F)cc2)C(=O)NCc2cccc(NC(=O)CCl)c2)cc1 [MN714]													24.9386	85.6581	0

Reference: PMC10564737, “Structure-based design of a phosphotyrosine-masked covalent ligand targeting the E3 ligase SOCS2” (Nature Communications, 2023)
